In experiment [1] the target is T1, mHTT (Homo sapiens, UniProt P42858).
T1 construct: host or cells: ST HDH Q111/111 mouse striatal cell line (knock-in locus)
Nature of the experiment: mHTT levels in striatal cells (immunocytochemistry). The experiment is classed as cell-based, mouse. The note with it: STHdh 111/111; for mHTT after treatment / remaining activity at 10 µM: 10 µM, percentage in comparison to untreated STHdh 111/111, 3B5H10 antibody; for mHTT after treatment / remaining activity at 10 µM / Nuclear mHTT after treatment: 3 hours heat shock, 48 hours treatment; for remaining activity at 10 µM: read-out: mHTT after treatment. The method, then: (§1) Staining - Cells were permeabilized with 0.3% Triton X-100 in 4 °C PBS (pH 7.4 from ThermoFisher) for 10 minutes. Then the cells were washed two times with 4 °C PBS. Subsequently, cells are blocked with 3% NGS (normal goat serum from Thermo Fisher) in 4 ° C PBS for 1 hour. Cells were incubated with primary antibodies in blocking buffer (PBS, 3% NGS, 0.02% NaN3) over night at 4 °C. Primary antibodies were mouse antipolyglutamine monoclonal antibody 3B5H10 (Sigma-Aldrich) at 1:250 dilution and Guinea Pig anti-MAP2 polyclonal antibody (Synaptic Systems) at 1:500 dilution. 3B5H10 binds to diffuse mHTT. Diffuse mHTT is a monomeric and small oligomeric mHTT. Diffuse mHTT is correlated to pathological parameters in Huntington's disease. Compounds that bind the mHTT will reduce the levels of diffuse mHTT detected.
Cells were washed 2 times with 4 °C PBS, and then incubated with secondary antibodies at 1:2000 dilution in blocking buffer for 1hour at room temperature. […] Cells were washed 2 times with 4 °C PBS, and then the nuclei were counterstain with DAPI (ThermoFisher) for 10 min at room temperature in the dark. Cells were washed 2 times with 4 °C PBS, and then 4 °C PBS was added to cells and then images were acquired. […] Table 11: Antibodies Used in Immunocytochemistry Studies
Fluorescence Imaging - Imaging sessions were performed on a confocal microscope system (Carl Zeiss Microscopy) equipped with a dual spinning disk unit (Yokogawa). All components of the imaging system were controlled via the ZEN 2 software suite (Carl Zeiss Microscopy). The laser lines used were 405 nm, 488 nm and 639 nm to excite DAPI or the respective fluorophores. […] Nested t test was performed to calculate the significance amongst repeated measurements using GraphPad Prism software.
as §1, with “For LC3 staining primary antibodies were mouse anti-LC3 mab (5F10) (nanoTools) at 1:500 dilution” for “3B5H10 binds to diffuse mHTT. Diffuse mHTT is a monomeric”, “Guinea Pig anti-MAP2 polyclonal antibody (Synaptic Systems) at 1:500 dilution.” for “small oligomeric mHTT. Diffuse mHTT is correlated to pathological parameters in Huntington's disease. Compounds that bind the mHTT will reduce the levels of diffuse mHTT detected.”
Cells were washed 2 times with 4 °C PBS, and then incubated with secondary antibodies at 1:2000 dilution in blocking buffer for 1hour at room temperature. […] Cells were washed 2 times with 4 °C PBS, and then the nuclei were counterstain with DAPI (ThermoFisher) for 10 min at room temperature in the dark. Cells were washed 2 times with 4 °C PBS, and then 4 °C PBS was added to cells and then images were acquired.
EC 50 value was determined with non-linear regression.

Experiment [2] deals with STHdh 111/111 striatal cells. Put plainly: Cell viability after heat shock (CellTiter Glo). As to conditions: Mus musculus, read-out: Cell Viability striatal cells 3h heat shocked. For orientation: In ATP-based viability assays light output follows the ATP content of the culture.
Experimental: Cell culture - ST HDH Q111/111 (CH00095, Coriell Institute) striatal derived cell line were grown at 33°C in DMEM (Sigma-Aldrich), supplemented with 10% fetal bovine serum (FBS), 1% Penicillin-Streptomycin (ThermoFisher Scientific), and 0.4 mg/ml G418 (Geneticin; Invitrogen). ST HDH Q111/111 are mouse striatal cells with polyQ length of 111.
Pre-Treatment of striatal cell line - First the medium was removed and new DMEM (DMEM, high glucose, HEPES, no phenol red) medium, supplemented with 10% fetal bovine serum (FBS), 1% Penicillin-Streptomycin, containing 10 µM compound was added. The cells were incubated at 33 °C for 24 hours.
Heat shock - Cells were heat shocked for 3 hours at 41 °C.
Treatment - Medium was removed and new DMEM (DMEM, high glucose, HEPES, no phenol red) medium, supplemented with 1% fetal bovine serum (FBS), 1% Penicillin-Streptomycin, containing 10 µM compound was added. The cells were incubated at 33 °C for 48 hours.
Cell Viability - Cell viability was measured according to manufacturer recommendations with CellTiter Glo (Promega).
For experiment [3], the system named is STHdh 7/7 striatal cells. Put plainly: Cell viability after heat shock (CellTiter Glo). It counts as cell-based. As to conditions: Mus musculus, 48 hours treatment, percentage in comparison to pre-heat shock cell viability, read-out: Cell Viability striatal cells 3h heat shocked. The method, then: RESULTS-Table 12bsummarizes the effect of the compounds on cell viability. STHdh 7/7 were heat shocked for 3 hours and treated for 48 hours with small molecule compounds. Table 12b lists the cell viability in striatal cells after 48 hours.
Effect of Compound 22 on Cell Viability of Wildtype Striatal Neurons - STHdh 7/7 cells are striatal cells that express wildtype huntingtin. These cells were cultured in the same conditions as described above for STHdh 111/111. The neurons were first heat shocked for 3 hours at 41 °C as described above. After 48 hours of treatment with the small molecule Compounds, cell viability was determined using the method described above. The "buffer" control is represents cells treated with a buffer only, without any compounds added. Some of the compounds show higher cell viability in comparison to control heat shocked STHdh 7/7 neurons with buffer and no treatment (Figure 5).

For experiment [4], the target named is Exon1 Q46 (Homo sapiens, UniProt P42858, INS38QQQQQQQQQQQQQQQQQQQQQQQQQ). Nature of the experiment: Circular dichroism study. It counts as binding. As to conditions: Exon1 Q46. On the procedure:
Protein samples were diluted with buffer to 7.5 µM prior to Circular Dichroism (CD) measurements. Measurements were conducted at room temperature.
Four spectra at each measurement were taken every 1 nm from 200 to 260 nm, scanning at 50 nm/min with an averaging time of 1 sec. Spectra were obtained from samples in 20 mM phosphate, pH 7.4. Ten scans were averaged for each sample spectrum
Single-wavelength readings at 222 nm were obtained. After subtraction of the Trx contribution, the α-helical content of Httex1 was estimated from its mean residue ellipticity (MREHttex1) at 222 nm. This calculation was conducted as described by Bravo-Arredondo (Bravo-Arredondo, J.M. et al., J Biol Chem. 2018 Dec 21;293(51):19613-19623).
MRE Exon-1 Q16 and Q46 (Mean Residue Ellipticity) was measured every 1 sec for 300 sec; the 301 readings for each sample were averaged and MRE Trx subtracted. The number of amino acids in each sample to experience a change in helicity was estimated using a previously developed helix-coil transition model, which gave the change in fraction of helicity (ΔfHelix) by the following equation: fHelix = (MREHttex1 −MRECoil)/(MREHelix −MRECoil) [formula] where MRE Exon1 Q26 or Q46 (MREHttex1 in the formula) describes the helix-coil transition, obtained from the difference between MRE Eon1 Q26 or Q46 at 222 nm of the fusion protein at the given temperature (in our case 37 °C) and the product of MRE Trx at 222 nm at the same temperature and the fraction of residues comprised by Trx in that particular construct, and MRECoil = 2220−53T,MREHelix =; (−44,000+250T)(1−(3)/(Nr)) [formula] given T as the temperature in °C and Nr as the number of residues.
In order to calculate an equilibrium of the two states model, percent α-helicity was calculated using the relation of MREHttex1 = 0 and -34700 (deg cm^2 dmol^-1) for 0% and 100% helicity, respectively. Table 14: Comparison between Kd, reversal of conformational changes of Exon1 Q46 and reduction of mHTT in comparison to untreated striatal neurons
The CD measurements protocol for Compound 101 was the same as outlined above except that from 206 nm - 210 nm and 220 nm - 224 nm, the step size was 0.2 nm, and the bandwidth was 1nm.
Background: Circular dichroism is widely used to follow secondary structure.

Read-outs that look alike come from different tables or passages of the source.

Exon1 Q46, sequence (P42858 with tags, fused parts or gaps with the stated changes): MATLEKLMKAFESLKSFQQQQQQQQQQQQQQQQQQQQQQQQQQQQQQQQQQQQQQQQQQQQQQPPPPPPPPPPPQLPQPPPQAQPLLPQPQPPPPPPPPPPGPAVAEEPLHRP
T1 sequence (P42858 with tags, fused parts or gaps with the stated changes): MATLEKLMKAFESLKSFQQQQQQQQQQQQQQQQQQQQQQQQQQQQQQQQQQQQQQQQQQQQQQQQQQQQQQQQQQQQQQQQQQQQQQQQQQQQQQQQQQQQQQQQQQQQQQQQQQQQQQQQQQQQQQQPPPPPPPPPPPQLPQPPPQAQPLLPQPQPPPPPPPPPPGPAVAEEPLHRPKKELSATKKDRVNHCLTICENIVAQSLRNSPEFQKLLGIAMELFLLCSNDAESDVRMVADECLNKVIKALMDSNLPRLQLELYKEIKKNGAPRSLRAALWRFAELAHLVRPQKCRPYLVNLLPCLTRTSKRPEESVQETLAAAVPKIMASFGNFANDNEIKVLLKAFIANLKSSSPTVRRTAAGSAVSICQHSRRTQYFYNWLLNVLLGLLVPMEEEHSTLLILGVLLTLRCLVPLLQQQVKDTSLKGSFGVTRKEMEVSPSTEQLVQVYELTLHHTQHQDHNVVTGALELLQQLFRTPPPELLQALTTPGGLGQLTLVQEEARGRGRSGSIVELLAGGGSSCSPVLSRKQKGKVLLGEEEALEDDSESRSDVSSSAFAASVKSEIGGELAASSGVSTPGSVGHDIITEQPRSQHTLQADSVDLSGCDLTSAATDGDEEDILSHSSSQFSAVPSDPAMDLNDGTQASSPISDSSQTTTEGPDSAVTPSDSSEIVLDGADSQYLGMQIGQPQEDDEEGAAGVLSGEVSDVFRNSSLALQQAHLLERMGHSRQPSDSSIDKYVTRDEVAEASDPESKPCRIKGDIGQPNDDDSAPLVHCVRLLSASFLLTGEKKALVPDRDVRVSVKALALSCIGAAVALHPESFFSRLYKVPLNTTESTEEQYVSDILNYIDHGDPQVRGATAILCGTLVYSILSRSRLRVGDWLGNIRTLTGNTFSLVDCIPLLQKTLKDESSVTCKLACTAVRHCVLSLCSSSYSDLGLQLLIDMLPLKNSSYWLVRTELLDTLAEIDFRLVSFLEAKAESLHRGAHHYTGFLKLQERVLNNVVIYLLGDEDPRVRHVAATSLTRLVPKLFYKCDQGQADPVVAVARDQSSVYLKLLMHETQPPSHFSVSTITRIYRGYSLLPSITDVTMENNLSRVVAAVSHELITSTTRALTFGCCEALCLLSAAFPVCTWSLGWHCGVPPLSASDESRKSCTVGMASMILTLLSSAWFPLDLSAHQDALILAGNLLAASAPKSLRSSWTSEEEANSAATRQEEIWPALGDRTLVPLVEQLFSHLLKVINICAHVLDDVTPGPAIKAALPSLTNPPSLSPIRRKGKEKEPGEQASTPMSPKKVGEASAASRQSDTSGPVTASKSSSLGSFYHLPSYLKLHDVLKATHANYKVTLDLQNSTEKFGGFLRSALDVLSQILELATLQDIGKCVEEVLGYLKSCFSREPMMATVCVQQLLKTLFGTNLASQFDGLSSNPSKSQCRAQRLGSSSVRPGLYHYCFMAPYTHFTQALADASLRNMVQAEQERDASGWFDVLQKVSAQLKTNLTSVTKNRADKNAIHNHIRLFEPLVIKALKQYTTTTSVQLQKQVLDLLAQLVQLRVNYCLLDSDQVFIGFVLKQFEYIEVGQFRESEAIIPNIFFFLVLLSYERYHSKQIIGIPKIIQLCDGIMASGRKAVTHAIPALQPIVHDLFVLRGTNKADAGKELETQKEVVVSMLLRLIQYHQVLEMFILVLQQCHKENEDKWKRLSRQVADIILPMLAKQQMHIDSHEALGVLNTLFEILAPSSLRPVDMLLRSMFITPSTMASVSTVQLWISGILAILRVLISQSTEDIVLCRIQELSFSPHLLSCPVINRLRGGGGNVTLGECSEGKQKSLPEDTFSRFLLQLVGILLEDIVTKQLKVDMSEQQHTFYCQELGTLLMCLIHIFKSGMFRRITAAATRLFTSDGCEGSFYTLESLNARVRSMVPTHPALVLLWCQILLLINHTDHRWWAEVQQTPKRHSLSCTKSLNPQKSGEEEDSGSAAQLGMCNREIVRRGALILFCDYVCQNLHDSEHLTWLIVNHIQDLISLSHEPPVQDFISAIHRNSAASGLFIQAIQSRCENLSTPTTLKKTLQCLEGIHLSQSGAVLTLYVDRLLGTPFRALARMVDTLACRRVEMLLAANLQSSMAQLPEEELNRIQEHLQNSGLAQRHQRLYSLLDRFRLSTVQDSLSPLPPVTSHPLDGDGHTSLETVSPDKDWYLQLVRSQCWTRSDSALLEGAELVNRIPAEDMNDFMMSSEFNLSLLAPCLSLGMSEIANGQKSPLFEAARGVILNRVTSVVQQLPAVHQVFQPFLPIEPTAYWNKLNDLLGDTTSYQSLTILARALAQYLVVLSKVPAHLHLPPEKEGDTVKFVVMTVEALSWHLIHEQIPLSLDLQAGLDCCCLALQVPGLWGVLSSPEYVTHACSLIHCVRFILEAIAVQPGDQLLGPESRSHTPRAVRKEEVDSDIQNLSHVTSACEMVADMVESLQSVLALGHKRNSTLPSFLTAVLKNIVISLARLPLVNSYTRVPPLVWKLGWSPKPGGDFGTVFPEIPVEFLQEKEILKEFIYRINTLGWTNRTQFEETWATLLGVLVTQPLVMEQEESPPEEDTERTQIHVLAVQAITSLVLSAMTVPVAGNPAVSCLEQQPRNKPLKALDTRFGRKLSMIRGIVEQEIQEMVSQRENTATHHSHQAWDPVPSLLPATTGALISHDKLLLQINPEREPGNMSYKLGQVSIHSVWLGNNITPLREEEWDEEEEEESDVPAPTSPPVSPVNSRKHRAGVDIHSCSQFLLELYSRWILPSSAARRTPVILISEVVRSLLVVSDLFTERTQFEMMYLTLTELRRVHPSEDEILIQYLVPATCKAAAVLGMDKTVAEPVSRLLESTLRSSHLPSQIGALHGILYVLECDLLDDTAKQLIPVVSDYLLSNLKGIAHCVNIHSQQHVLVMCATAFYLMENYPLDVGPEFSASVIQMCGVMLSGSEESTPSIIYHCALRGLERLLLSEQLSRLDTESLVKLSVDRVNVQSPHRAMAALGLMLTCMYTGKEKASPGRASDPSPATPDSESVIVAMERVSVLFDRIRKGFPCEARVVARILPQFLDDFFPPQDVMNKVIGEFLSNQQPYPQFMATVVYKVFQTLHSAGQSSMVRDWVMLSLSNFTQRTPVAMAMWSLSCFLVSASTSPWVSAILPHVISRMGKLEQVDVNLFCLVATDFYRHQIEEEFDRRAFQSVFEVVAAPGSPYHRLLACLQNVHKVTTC

In experiment [1], `CCc1[nH]c2ccc(C(=O)NCCN3CCN(C)CC3)cc2c1C` [Compound 9] came in with a mHTT after treatment of 37%. Besides, the viability at 10 µM in experiment [2] (48 h) turned out to be 88%.

On to `Cc1[nH]c2ccc(C(=O)NCCN3CCN(C)CC3)cc2c1C` [Compound 24], for which, in experiment [1], the remaining activity at 10 µM stood at 47%. The viability at 10 µM in experiment [2] was 103%.

On to `Cc1[nH]c2ccc(C(=O)NCCN3CCOCC3(C)C)cc2c1C` [Compound 28], for which, in experiment [1], the remaining activity at 10 µM was 51%. The viability at 10 µM in experiment [3] is 52.4%; in experiment [2], 18%.

For `CC(C)N(CCNC(=O)c1ccc2[nH]c3c(c2c1)CCCC3)C(C)C` [Compound 34], the mHTT after treatment in experiment [1] was found to be 56%. Moreover, the viability at 10 µM in experiment [2] (48 h) turned out to be 60%.

Regarding `O=C(NCCN1CCCCC1)c1ccc2[nH]c3c(c2c1)CCC3` [Compound 35], the remaining activity at 10 µM in experiment [1] was found to be 56%. For the same compound, the viability at 10 µM in experiment [2] amounted to 103%.

With `Cc1c(C)n(C)c2ccc(C(=O)NCCN(C(C)C)C(C)C)cc12` [Compound 39], the viability at 10 µM stood at 154% in experiment [3] and 117% in experiment [2] (48 h).

On to `Cc1c(C)n(C)c2ccc(C(=O)NCCN(C)C)cc12` [Compound 41, N-(2-(Dimethylamino)ethyl)-1,2,3-trimethyl-1H-indole-5-carboxamide], for which, in experiment [1], the remaining activity at 10 µM worked out at 65%.

In the case of `O=C(NCCN1CCC1)c1ccc2[nH]c3c(c2c1)CCC3` [Compound 42], the remaining activity at 10 µM in experiment [1] worked out at 65%.

With `CC(C)N(CCNC(=O)c1ccc2[nH]ccc2c1)C(C)C` [Compound 43], the remaining activity at 10 µM in experiment [1] worked out at 65%.

`Cc1c(C)n(C)c2ccc(C(=O)NCCN3CCC3)cc12` [Compound 44, N-(2-(Azetidin-1-yl)ethyl)-1,2,3-dimethyl-1H-indole-5-carboxamide]: the mHTT after treatment in experiment [1] worked out at 66%.

For the compound `Cc1c(C)n(C)c2ccc(C(=O)NCCN3CCCC3)cc12` [Compound 46, 1,2,3-Trimethyl-N-(2-(pyrrolidin-1-yl)ethyl)-1H-indole-5-carboxamide], in experiment [1], the remaining activity at 10 µM turned out to be 66%.

On to `Cc1[nH]c2ccc(C(=O)NCCN3CCCCC3)cc2c1C` [Compound 47, 2,3-Dimethyl-N-(2-(piperidin-1-yl)ethyl)-1H-indole-5-carboxamide], for which the remaining activity at 10 µM in experiment [1] was 66%.

Turning to `Cc1c(C)n(C)c2ccc(C(=O)NCCN3CCCCC3C)cc12` (centres unmarked) [Compound 48], in experiment [1], the remaining activity at 10 µM was determined as 68%.

The compound `Cc1[nH]c2ccc(C(=O)NCCN(C)C3CCCC3)cc2c1C` [Compound 55] had a mHTT after treatment in experiment [1] of 91%. Besides, the viability at 10 µM in experiment [2] (48 h) stood at 67%.

As for `Cc1[nH]c2ccc(C(=O)NC3CCC(N(C)C)CC3)cc2c1C` (centres unmarked) [Compound 101, N-(4-(dimethylamino)cyclohexyl)-2,3-dimethyl-1H-indole-5-carboxamide], the “mHTT after 3 h heat shock and following 48 hours of compound treatment in comparison to untreated STHdh 111/111” value in experiment [1] was 38%. Also, in experiment [1], the remaining activity at 10 µM is 38%. Further, the Kd in experiment [4] turned out to be 70 nM. In addition, the “Fraction Helix fH” value in experiment [4] (conc. Compound 0.01 µM) came out at 20.5%; in experiment [4] (conc. Compound 0.059 µM), 20.1%; in experiment [4] (conc. Compound 0.158 µM), 19.9%; in experiment [4] (conc. Compound 0.647 µM), 19.1%; in experiment [4] (conc. Compound 1.62 µM) it was 19.0%; in experiment [4] (conc. Compound 4.04 µM) it was 18.5%. The entries for the “Fraction Helix fH” value in experiment [4] (conc. Compound 13.68 µM) and in experiment [4] (conc. Compound 37.77 µM) were 18.7% and 18.2%, respectively.

With `CON1CCC(NC(=O)c2ccc3[nH]c(C)c(C)c3c2)CC1` [Compound 115], the viability at 10 µM in experiment [3] is 136%.

With `CCN(CC)C(=O)CNC(=O)c1ccc2[nH]c(C)c(C)c2c1` [Compound 116], the viability at 10 µM in experiment [3] stood at 118%.

With `Cc1[nH]c2ccc(C(=O)N(C)CCN3C[C@@H](C)O[C@@H](C)C3)cc2c1C` [Compound 117], the viability at 10 µM in experiment [3] came to 118%.

Consider `Cc1c(C)n(Cc2ccccc2)c2ccc(C(=O)NCCN(C)C)cc12` [Compound 118], for which the viability at 10 µM in experiment [3] is 110%.

Take `Cc1[nH]c2ccc(C(=O)N3CCN(C(C)C)CC3)cc2c1C` [Compound 119]: in experiment [3], the viability at 10 µM turned out to be 101%.

For the compound `COC[C@H](CCNC(=O)c1ccc2[nH]c(C)c(C)c2c1)OC` [Compound 120], the viability at 10 µM in experiment [3] was found to be 100%.

For `Cc1[nH]c2ccc(C(=O)NCC(C)(C)OCC3CC3)cc2c1C` [Compound 121], the viability at 10 µM in experiment [3] stood at 100%.

As to `CCN(CC)CCNCc1ccc2[nH]c(C)c(C)c2c1` [Compound 122], the viability at 10 µM in experiment [3] amounted to 91.2%.

Regarding `CCN(CCNC(=O)c1ccc2[nH]ccc2c1)C1CC1` [Compound 123], in experiment [3], the viability at 10 µM turned out to be 83.8%.

`CO[C@@H](CNC(=O)c1ccc2[nH]c(C)c(C)c2c1)C(C)C` [Compound 124]: in experiment [3], the viability at 10 µM stood at 76.2%.

For `Cc1[nH]c2ccc(C(=O)N(C)CCNC(=O)C(C)C)cc2c1C` [Compound 125], the viability at 10 µM in experiment [3] turned out to be 67.9%.

On to `Cc1[nH]c2ccc(C(=O)N3CCCN(C(C)C)CC3)cc2c1C` [Compound 126], for which, in experiment [3], the viability at 10 µM is 42.5%.

`Cc1[nH]c2ccc(S(=O)(=O)NCCN3CCOCC3)cc2c1C` [Compound 127]: the “Nuclear mHTT after treatment” value in experiment [1] came to 23.9%.

`Cc1[nH]c2ccc(S(=O)(=O)NCCN3CCCCC3)cc2c1C` [Compound 128]: the “Nuclear mHTT after treatment” value in experiment [1] was 79.9%.

The viability is a read-out of living cells in per cent, often relative to untreated cells. By Kd is commonly meant the constant that tells how readily two partners part at equilibrium.

Source of the values: patent EP4140481A1, “PROTEIN-OLIGOMER BINDING AGENTS AND THERAPEUTIC USES THEREOF” (Galyan Bio, Inc., priority 2021, dated 2023).
